US8013169B2, “Naphthylmethylimidizoles as therapeutic agents” (Allergan, Inc, priority 2007, dated 2011)

Key:
Alpha 1A = molecular target: T1, Alpha 1A (Homo sapiens, UniProt P35348); assay: RSAT assay, Alpha 1A; assay type: cell-based; settings: for Alpha 1A (IA) intrinsic activity: ratio of maximal effect of drug to maximal effect of standard full agonist
T1 construct: expressed in transfected cells; host or cells: NIH-3T3
T1 sequence (P35348 1-466): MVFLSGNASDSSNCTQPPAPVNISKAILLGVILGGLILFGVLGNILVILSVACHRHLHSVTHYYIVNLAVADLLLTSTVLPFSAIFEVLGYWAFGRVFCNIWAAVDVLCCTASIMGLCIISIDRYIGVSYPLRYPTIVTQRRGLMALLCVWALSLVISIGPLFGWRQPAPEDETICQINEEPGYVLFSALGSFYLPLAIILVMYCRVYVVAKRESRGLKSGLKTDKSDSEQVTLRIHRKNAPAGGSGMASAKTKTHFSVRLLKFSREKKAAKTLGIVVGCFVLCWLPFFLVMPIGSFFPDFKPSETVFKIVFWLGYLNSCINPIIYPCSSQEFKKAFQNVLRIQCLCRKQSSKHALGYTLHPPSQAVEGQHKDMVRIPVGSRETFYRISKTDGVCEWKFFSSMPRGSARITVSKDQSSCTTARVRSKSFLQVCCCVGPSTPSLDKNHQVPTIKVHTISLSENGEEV
Procedure: (§1) The RSAT assay measures a receptor-mediated loss of contact inhibition that results in selective proliferation of receptor-containing cells in a mixed population of confluent cells. The increase in cell number is assessed with an appropriate transfected marker gene such as […]-galactosidase, the activity of which can be easily measured in a 96-well format. Receptors that activate the G protein, Gq, elicit this response. Alpha2 receptors, which normally couple to Gi, activate the RSAT response when coexpressed with a hybrid Gq protein that has a Gi receptor recognition domain, called Gq/i5.
NIH-3T3 cells are plated at a density of 2×10^6 cells in 15 cm dishes and maintained in Dulbecco's modified Eagle's medium supplemented with 10% calf serum. One day later, cells are cotransfected by calcium phosphate precipitation with mammalian expression plasmids encoding p-SV-β-galactosidase (5-10 μg), receptor (1-2 μg) and G protein (1-2 μg). 40 μg salmon sperm DNA may also be included in the transfection mixture. Fresh media is added on the following day and 1-2 days later, cells are harvested and frozen in 50 assay aliquots. Cells are thawed and 100 μl added to 100 μl aliquots of various concentrations of drugs in triplicate in 96-well dishes. Incubations continue 72-96 hr at 37° C. After washing with phosphate-buffered saline, β-galactosidase enzyme activity is determined by adding 200 μl of the chromogenic substrate (consisting of 3.5 mM o-nitrophenyl-β-D-galactopyranoside and 0.5% nonidet P-40 in phosphate buffered saline), incubating overnight at 30° C. and measuring optical density at 420 nm. The absorbance is a measure of enzyme activity, which depends on cell number and reflects a receptor-mediated cell proliferation. The efficacy or intrinsic activity is calculated as a ratio of the maximal effect of the drug to the maximal effect of a standard full agonist for each receptor subtype. Brimonidine, also called UK14304, the chemical structure of which is shown below, is used as the standard agonist for the alpha2A, alpha2B and alpha2C receptors. The EC50 is the concentration at which the drug effect is half of its maximal effect.
EC50 values are nanomolar. NA stands for “not active” at concentrations less than 10 micromolar. IA stands for “intrinsic activity.”

Alpha 2B = molecular target: T2, Alpha 2B (Homo sapiens, UniProt P18089); assay: RSAT assay, Alpha 2B; assay type: cell-based
T2 construct: expressed in transfected cells; host or cells: NIH-3T3
T2 sequence (P18089 1-450): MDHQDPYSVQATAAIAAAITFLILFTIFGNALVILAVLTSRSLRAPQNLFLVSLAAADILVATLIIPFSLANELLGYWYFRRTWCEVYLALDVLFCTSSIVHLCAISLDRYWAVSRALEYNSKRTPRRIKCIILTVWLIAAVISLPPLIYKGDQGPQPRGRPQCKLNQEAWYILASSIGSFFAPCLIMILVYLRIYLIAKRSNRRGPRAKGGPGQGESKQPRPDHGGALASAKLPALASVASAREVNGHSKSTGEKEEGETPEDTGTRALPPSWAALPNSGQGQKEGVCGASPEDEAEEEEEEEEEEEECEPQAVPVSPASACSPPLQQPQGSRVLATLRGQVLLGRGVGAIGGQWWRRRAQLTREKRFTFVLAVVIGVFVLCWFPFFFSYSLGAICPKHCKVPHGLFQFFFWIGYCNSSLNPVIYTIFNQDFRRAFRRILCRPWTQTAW
Procedure: as §1
NIH-3T3 cells are plated at a density of 2×10^6 cells in 15 cm dishes and maintained in Dulbecco's modified Eagle's medium supplemented with 10% calf serum. […] After washing with phosphate-buffered saline, β-galactosidase enzyme activity is determined by adding 200 μl of the chromogenic substrate (consisting of 3.5 mM o-nitrophenyl-β-D-galactopyranoside and 0.5% nonidet P-40 in phosphate buffered saline), incubating overnight at 30° C. and measuring optical density at 420 nm. The absorbance is a measure of enzyme activity, which depends on cell number and reflects a receptor-mediated cell proliferation. The efficacy or intrinsic activity is calculated as a ratio of the maximal effect of the drug to the maximal effect of a standard full agonist for each receptor subtype. […]

SMILES | EC50 (Alpha 1A) [nM] | Alpha 1A (IA) intrinsic activity (Alpha 1A) | EC50 (Alpha 2B; RSAT, NIH-3T3 cells coexpressing Gq/i5, NA = not active at concentrations less than 10 micromolar) [nM] | Alpha 2B (IA) intrinsic activity (Alpha 2B; ratio of maximal effect of drug to maximal effect of standard full agonist brimonidine)
CNc1ccc(Cc2nc[nH]c2C)c2ccccc12 [Compound 7, N-methyl-4-((5-methyl-1H-imidazol-4-yl)methyl)naphthalen-1-amine] | 13 | 1.2 | – | –
Cc1[nH]cnc1Cc1ccc(N)c2ccccc12 [Compound 8, 4-((5-methyl-1H-imidazol-4-yl)methyl)naphthalen-1-amine] | 55 | 1.01 | 146 | 0.46
